Consider 3 compounds from patent US5272155A, “(+)-2-methylpiperidine as modulator of cholinergic systems” (Abbott Laboratories, priority 1991, dated 1993).

A short description of data set [1]: Mean arterial pressure (MAP) in rats, iv administration. It is filed as in vivo, rat. The settings on record: for Mean Arterial Pressure (MAP): mean (SEM), (+) N = 5 rats, (-) N = 3 rats; for effect on mean arterial pressure / blood pressure: 0.1-3.0 mg/kg, result in words. On the procedure: (§1) Methods for surgical preparations of rats for electrical stimulation of brain and measurement of cortical CBF are detailed by Linville and Arneric (1991).
(§2) Intravenous (iv) administration of (+) 2-methylpiperidine ((+)2-MP) and (-)2-MP (0.1-3.0 mg/kg) were examined for their effect on mean arterial pressure (MAP), resting CBF and increases in cortical CBF elicited by electrically stimulating the BF (.perspectiveto.25 Hz; 100 uA; 10 sec. train).

Another data set relates to rat brain receptor sites. Conditions: Sloan et al. 1985, listed as (+)isomer of (±)2-methylpiperidine; cited from earlier work.
Data set [2] in a line: Hypothermia: rectal temperature of mice. The format is in vivo, mouse. Conditions: i.p.; for Rectal temperature 15 min. later: saline 38.3 ± 0.1, mean ± S.E.M. The protocol:
Adult male CD1 mice (n=5-7/group) were injected with (+)2-methylpiperidine (0, 10 or 100 mg/kg, i.p.) and rectal temperatures were assessed (YSI Model 43 TA) 15 min. later.

The subject of a further data set is Adult male CD1 mice. The data set is described as follows: Habituation / locomotor activity in automated activity monitors. It is filed as in vivo, mouse. Conditions: for locomotor activity, first 10 min after introduction to the novel environment: Saline=3680±169. On the procedure:
Adult male CD1 mice (n=8/group) were injected with (+)2-methylpiperidine (0, 1.0, 3.0 or 10.0 mg/kg, i.p.) immediately prior or 60 min. prior to placement in automated activity monitors (Omnitech, Columbus, Ohio). These enclosures, measuring 40×40×42 cm, are equipped with a series of photocells and generate measurements of a variety of locomotor activities.

The subject of the next data set is mouse. The data set is described as follows: (-)Nicotine induced mouse lethality after pretreatment. The format is in vivo.
Data set [3] has as its system nicotinic receptor. The data set is described as follows: Cortical CBF response elicited by electrical stimulation of the basal forebrain (BF) in rats. The format is in vivo, rat. The settings on record: iv; for BF-Elicited CBF Response, % of Resting Cortical CBF: mean (SEM), (+) N = 5 rats, (-) N = 3 rats; for effect on BF-elicited CBF response: 0.1-3.0 mg/kg, result in words. On the procedure:
as §1, §2

The subject of data set [4] is nicotinic receptor. The data set is described as follows: Resting cortical cerebral blood flow (CBF) in rats, iv administration. The format is in vivo, rat. The settings on record: for Resting Cortical CBF, % of Resting CONTROL: mean (SEM), (+) N = 5 rats, (-) N = 3 rats; for effect on resting CBF: 0.1-3.0 mg/kg, result in words. On the procedure:
as §1, §2

The test system of a further data set is male CD1 mice. The data set is described as follows: Acute lethality in mice within 24 hours. The format is in vivo, mouse. The settings on record: for Deaths in 24 hours: mandelic acid salt, deaths/animals. An excerpt: Compounds were given as the respective mandelic acid salts.
For data set [5], the system named is CD1 mice. Put plainly: Mouse elevated-plus maze (conflict test, anxiolytic activity). It is filed as in vivo. The protocol:
FIG. 1A is a graph of time mice spend in the open arms of the elevated-plusmaze (a conflict test that probes anxiolytic activity) as a function of the dose of (-)nicotine administered to the mice.
FIG. 1B is a graph of time mice spend in the open arms of the elevated-plusmaze as a function of the administration of (+)2-methylpiperidine (0.1 mg/kg) or (-)nicotine administered separately or in combination.
The mouse elevated-plus maze is a conflict test that probes anxiolytic activity (Lister, Pyschopharmacology, 1987, 92:180). It is based on the fact that exposure of mice to an elevated open arm leads to an avoidance response considerably stronger than that evoked by exposure to an enclosed arm.
The apparatus required to perform this test is made of plexiglass and consists of two open arms (17×8 cm) and two enclosed arms (17×8×15 cm) extending from a central platform (8×8 cm). It is mounted on an opaque plexiglass base rising 39 cm above the floor. Mice are released on one of the open arms and the time spent in the open and enclosed arms is recorded during a 5 min. test period.
CD1 mice (n=8 per group) received systemic (-)nicotine injections (0, 0.03, 0.1 or 0.3 mg/kg, IP) fifteen minutes before they were allowed to explore the plus-maze for a 5 minute test period.

Data set [6] is described as follows: Combined effects of (-)nicotine and (+)2-methylpiperidine on rectal temperatures of mice. It is filed as in vivo, mouse. Conditions: for Rectal temperature: mean ± S.E.M.
For data set [7], the system named is CD1 mice. Conditions: known anxiolytic drug, background of the test; cited from earlier work.
Data set [8] can be described thus: (-)Nicotine induced mouse lethality after pretreatment. The format is in vivo. The settings on record: mouse, in vivo, ip; saline pretreatment; read-out: LD50 [95% C.I.] of (-)nicotine.

“Also recorded” adds a separate entry of the source.

For `CC1CCCCN1` (racemic) [(+)2-methylpiperidine, (+)-2-methylpiperidine], the “Mean Arterial Pressure (MAP)” value is reported as 82 (6) mmHg in data set [1] (0.1 mg/kg, dose 0: (+) 76 (3), (-) 90 (6)); 87 (5) mmHg in data set [1] (0.3 mg/kg); 92 (7) mmHg in data set [1] (1.0 mg/kg); 87 (7) mmHg in data set [1] (3.0 mg/kg). For the same compound, the “effect on mean arterial pressure / blood pressure” value is “no overt on blood pressure” in [1] and “No remarkable effects” in data set [1] (listed as (+)2-MP). The “enhancement of the binding of nicotine / nicotinic ligands” value with rat brain receptor sites was “enhances the binding of nicotinic ligands to rat brain receptor sites”. The “Rectal temperature 15 min. later” value was 38.2 ± 0.1 °C in data set [2] (10 mg/kg, baseline 38.2 ± 0.1) and 38.2 ± 0.2 °C in data set [2] (100 mg/kg, baseline 38.3 ± 0.1). Also, the “effect on rectal temperature” value in data set [2] (10 or 100 mg/kg, 15 min, as well as 60 and 120 min later) was “without effect”. Further, the “locomotor activity, first 10 min after introduction to the novel environment” value with Adult male CD1 mice (3.0 mg/kg, i.p., 60 min prior) is listed as 3402±164 activity counts; with Adult male CD1 mice (10 mg/kg, i.p., 60 min prior), 3349±126 activity counts. In the data set on Adult male CD1 mice (1.0, 3.0 or 10.0 mg/kg, i.p., drug-by-time interaction p<0.02), the “effect on the habituation process” value is “dose-related enhancement of the habituation process”. The “effect on locomotor activity (impairment or sedation)” value in the data set with Adult male CD1 mice (3.0 or 10.0 mg/kg, 60 min prior, first 10 min) was “did not significantly decrease the high level of locomotor activity”. Moreover, in the data set on mouse (i.p. (-)nicotine, result in words), the “effect on the lethality elicited by (-)nicotine” value was “did not potentiate the lethality; also recorded: does not potentiate (-)nicotine induced acute lethality”. The DEATHS/24 hours in the data set on mouse (pretreatment 0.1 mg/kg, (-)nicotine 3 mg/kg) is on record as 0/6; with mouse (pretreatment 0.1 mg/kg, (-)nicotine 6 mg/kg), 1/6; in the data set with mouse (pretreatment 0.1 mg/kg, (-)nicotine 9 mg/kg), 2/6; in the data set with mouse (pretreatment 10.0 mg/kg, (-)nicotine 3 mg/kg), 0/6; with mouse (pretreatment 10.0 mg/kg, (-)nicotine 6 mg/kg), 1/8; in the data set with mouse (pretreatment 10.0 mg/kg, (-)nicotine 9 mg/kg), 3/6. Besides, the “BF-Elicited CBF Response, % of Resting Cortical CBF” value is reported as 203 (21) % in the data set with nicotinic receptor [3] (0.1 mg/kg, dose 0: (+) 153 (11), (-) 130 (8)); 222 (20) % in the data set with nicotinic receptor [3] (0.3 mg/kg); 222 (23) % with nicotinic receptor [3] (1.0 mg/kg); 220 (19) % with nicotinic receptor [3] (3.0 mg/kg). In addition, the “effect on BF-elicited CBF response” value in the data set with nicotinic receptor [3] (listed as (+)2-MP) is “effective in enhancing resting CBF and the BF-elicited CBF response”; in the data set with nicotinic receptor [3] (listed as (+)-2MP) it was “enhanced”. Besides, the “Resting Cortical CBF, % of Resting CONTROL” value with nicotinic receptor [4] (0.1 mg/kg, dose 0: (+) 100 (10), (-) 100 (13)) is listed as 126 (15) %; in the data set on nicotinic receptor [4] (0.3 mg/kg), 133 (22) %; in the data set on nicotinic receptor [4] (1.0 mg/kg) it was 146 (28) %; in the data set on nicotinic receptor [4] (3.0 mg/kg), 140 (27) %. Besides, the “effect on resting CBF” value in the data set with nicotinic receptor [4] (listed as (+)2-MP) is given as “effective in enhancing resting CBF”; in the data set on nicotinic receptor [4] (listed as (+)-2MP), “enhanced”. The “Deaths in 24 hours” value in the data set with male CD1 mice (30 mg/kg, i.p.) is listed as 0/5; in the data set on male CD1 mice (100 mg/kg, i.p.), 0/5. Further, in the data set on male CD1 mice (30 and 100 mg/kg, i.p.), the tolerability entry is “well tolerated by male CD1 mice, and did not cause any deaths within 24 hours”. Further, the “anxiolytic activity in combination with a non-effective dose of (-)nicotine” value in the data set with CD1 mice [5] ((+)2-methylpiperidine 0.1 mg/kg, IP, 5 min prior to (-)nicotine (FIG. 1B), n=8) is reported as “able to enhance the anxiolytic activity of a non-effective dose of (-)nicotine”. The Rectal temperature is 36.0 ± 0.7 °C in data set [6] ((+)2-MP 0.1 mg/kg (so in the source) pretreatment, then (-)nicotine 1.0 mg/kg, * p<0.05); 37.8 ± 0.2 °C in data set [6] ((+)2-MP 1.0 mg/kg pretreatment, then (-)nicotine 0.3 mg/kg); 37.5 ± 0.3 °C in data set [6] ((+)2-MP 10.0 mg/kg pretreatment, then (-)nicotine 0.3 mg/kg); 36.5 ± 0.5 °C in data set [6] ((+)2-MP 10.0 mg/kg pretreatment, then (-)nicotine 1.0 mg/kg, * p<0.05). The “effect on the hypothermic response to (-)nicotine” value in data set [6] ((+)2-methylpiperidine 1 and 10 mg/kg, i.p., 3 min. prior to (-)nicotine) is “did not potentiate the hypothermic response to (-)nicotine; also recorded: the hypothermic response of the low dose of (-)nicotine (0.3 mg/kg) was actually attenuated; also recorded: the higher dose of (-)nicotine was unaffected”.
Take `CN1C(=O)CN=C(c2ccccc2)c2cc(Cl)ccc21` [diazepam]: the “time spent in open arms, known anxiolytic drugs” value in the data set on CD1 mice [7] is recorded as “increased in a dose-related way”.
With `CN1CCCC1c1cccnc1` (single isomer, unassigned; (-)) [(-)nicotine, reference compound], the LD50 (in general, the dose expected to kill half of the subjects tested) in data set [8] worked out at 7.7 mg/kg. Moreover, the DEATHS/24 hours with mouse ((-)nicotine 3 mg/kg, saline pretreatment) was 0/6; with mouse ((-)nicotine 6 mg/kg, saline pretreatment) it was 2/8; with mouse ((-)nicotine 9 mg/kg, saline pretreatment), 4/6. In addition, the death of animals in the data set on male CD1 mice ((-)nicotine 9.0 mg/kg) is given as 4 out of 6. In the data set with male CD1 mice ((-)nicotine 9.0 mg/kg), the signs of cholinostimulation entry was “dyspnea and decreased activity”. The “time spent in the open arms (anxiolytic effect)” value with CD1 mice [5] ((-)nicotine 0.1 and 0.3 mg/kg, IP, 15 min before test, p<0.05 vs saline, n=8) is reported as “significant increase in the time spent by the mice in the open arms”. In the data set with CD1 mice [5] ((-)nicotine dose used in the combination of FIG. 1B), the “anxiolytic activity of the low (-)nicotine dose given alone” value is “non-effective”. For the same compound, the effect on temperature entry in data set [6] ((-)nicotine 0.3 and 1.0 mg/kg, i.p.) is listed as “significantly lowered temperature”. Also, the Rectal temperature in data set [6] (saline pretreatment, (-)nicotine 0.3 mg/kg, * p<0.05 vs saline (38.3 ± 0.1)) was determined as 36.9 ± 0.2 °C; in data set [6] (saline pretreatment, (-)nicotine 1.0 mg/kg, * p<0.05 vs saline (38.3 ± 0.1)), 36.5 ± 0.6 °C.
